Experimental data published in ChEMBL document CHEMBL5370659 (J Med Chem, 2023).
In brackets after ≈: the same amount, converted by molar mass. One block for each molecule: values may come before it.

Assays:
[1] = molecular target: T1, Tryptophan 5-hydroxylase 2 (Homo sapiens, UniProt Q8IWU9); test: Inhibition of recombinant MBP-tagged full length human THP2 using L-Trp as substrate assessed as formation of 5-HTP by measuring fluorescent property
T1 sequence (Q8IWU9 whole entry): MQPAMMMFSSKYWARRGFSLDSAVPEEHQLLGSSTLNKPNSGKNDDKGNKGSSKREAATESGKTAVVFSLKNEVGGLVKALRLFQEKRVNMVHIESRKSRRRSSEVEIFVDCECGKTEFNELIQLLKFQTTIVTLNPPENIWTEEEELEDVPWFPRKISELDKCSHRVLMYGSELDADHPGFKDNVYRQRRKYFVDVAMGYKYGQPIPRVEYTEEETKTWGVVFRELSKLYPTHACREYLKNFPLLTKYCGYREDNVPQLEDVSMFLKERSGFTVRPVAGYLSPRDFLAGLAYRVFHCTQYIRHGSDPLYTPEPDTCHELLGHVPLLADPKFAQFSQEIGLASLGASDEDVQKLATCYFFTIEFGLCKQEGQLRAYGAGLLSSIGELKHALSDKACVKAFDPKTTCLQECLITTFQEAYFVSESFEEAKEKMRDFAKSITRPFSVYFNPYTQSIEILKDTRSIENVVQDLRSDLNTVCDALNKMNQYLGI

[2] = molecular target: T2, Tryptophan 5-hydroxylase 1 (Homo sapiens, UniProt P17752); test: Inhibition of recombinant MBP-tagged full length human THP1 using L-Trp as substrate assessed as formation of 5-HTP by measuring fluorescent property
T2 sequence (P17752 whole entry): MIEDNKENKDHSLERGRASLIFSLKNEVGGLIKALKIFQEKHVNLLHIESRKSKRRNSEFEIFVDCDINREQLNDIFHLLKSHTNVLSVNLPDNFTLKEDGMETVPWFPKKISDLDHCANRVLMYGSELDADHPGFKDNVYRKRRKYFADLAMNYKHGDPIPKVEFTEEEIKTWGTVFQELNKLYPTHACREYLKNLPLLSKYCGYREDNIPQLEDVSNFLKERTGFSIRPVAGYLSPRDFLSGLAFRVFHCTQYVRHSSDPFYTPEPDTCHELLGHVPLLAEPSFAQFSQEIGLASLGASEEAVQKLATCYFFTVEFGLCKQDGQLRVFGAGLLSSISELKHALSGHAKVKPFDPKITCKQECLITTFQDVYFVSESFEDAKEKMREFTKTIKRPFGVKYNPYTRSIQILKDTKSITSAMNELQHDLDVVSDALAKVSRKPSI

[3] = Aqueous solubility of the compound in pH 7.4 PBS buffer by HPLC-UV analysis; format: physicochemical
[4] = Permeability across basal to apical side in MDCK-MDR1 cells at pH 6.5/7.4 measured at 5 uM by LC-MS/MS analysis; format: ADME, cell-based, Canis lupus familiaris; details: dog, MDCK-MDR1, pH 6.5
[5] = Apparent permeability across apical to basal side in human Caco-2 cells at pH 6.5/7.4 measured at 5 uM by LC-MS/MS analysis; format: ADME, cell-based; details: Caco-2, pH 6.5
[6] = Apparent permeability across basal to apical side in human Caco-2 cells at pH 6.5/7.4 measured at 5 uM by LC-MS/MS analysis; format: ADME, cell-based; details: Caco-2, pH 6.5
[7] = Plasma protein binding in human; format: ADME, cell-free; details: read-out: PPB (converted)
[8] = Metabolic stability in human hepatocytes assessed as half life; format: ADME, cell-based, Hepatocyte
[9] = Permeability across apical to basal side in MDCK-MDR1 cells at pH 6.5/7.4 measured at 5 uM by LC-MS/MS analysis; format: ADME, cell-based, Canis lupus familiaris; details: dog, MDCK-MDR1, pH 6.5
[10] = Plasma protein binding in rat; format: ADME, cell-free; details: read-out: PPB (converted)
[11] = Metabolic stability in human hepatocytes assessed as intrinsic clearance; format: ADME, cell-based, Hepatocyte; details: read-out: CLH
[12] = Metabolic stability in rat hepatocytes assessed as half life; format: ADME, cell-based, Hepatocyte
[13] = Solubility in simulated gastric fluid by HPLC-UV analysis; format: physicochemical
[14] = Metabolic stability in rat hepatocytes assessed as intrinsic clearance; format: ADME, cell-based, Hepatocyte; details: read-out: CLH
[15] = Solubility in simulated intestinal fluid by HPLC-UV analysis; format: physicochemical

- IC50 [1]: 69 nM
- IC50 [2]: 690 nM
Compound: CCn1c(=O)[nH]c(=O)c2c1nc(Cc1cn3cc(C)sc3n1)n2CCCC(=O)O

- IC50 [1]: 25 nM
- IC50 [2]: 243 nM
Compound: CCn1c(=O)[nH]c(=O)c2c1nc(Cc1cn3c(n1)CCCC3)n2Cc1cccc(C(=O)OC)c1

- IC50 [1]: 32 nM
- IC50 [2]: 81 nM
Compound: CCn1c(=O)[nH]c(=O)c2c1nc(Cc1cn3cc(C)sc3n1)n2CC=C(C)C

- solubility [3]: 173 µM (≈ 66.5 µg/mL)
- Papp B→A at 5 µM [4]: 54 ×10⁻⁶ cm/s
- Papp A→B at 5 µM [5]: 1.29 ×10⁻⁶ cm/s
- Papp B→A at 5 µM [6]: 57 ×10⁻⁶ cm/s
- fraction unbound [7]: 0.06
- IC50 [1]: 23 nM
- half-life [8]: 67 min
- Papp A→B at 5 µM [9]: 0.45 ×10⁻⁶ cm/s
- fraction unbound [10]: 0.17
- IC50 [2]: 100 nM
- CLint scaled [11]: 19 mL/min/kg
- t1/2 [12]: 42 min
Compound: CCn1c(=O)[nH]c(=O)c2c1nc(Cc1cn3cc(C)sc3n1)n2CC1CC1

- solubility [3]: 35.1 µM (≈ 14.8 µg/mL)
- solubility [13]: 177 µM (≈ 74.4 µg/mL)
- Papp A→B at 5 µM [5]: 24.7 ×10⁻⁶ cm/s
- Papp B→A at 5 µM [6]: 53.9 ×10⁻⁶ cm/s
- fraction unbound [7]: 0.24
- CLint scaled [14]: 514 mL/min/kg
- half-life [8]: 22 min
- solubility [15]: 48.5 µM (≈ 20.4 µg/mL)
- fraction unbound [10]: 0.21
- CLint scaled [11]: 315 mL/min/kg
- half-life [12]: 13 min
Compound: CCn1c(=O)[nH]c(=O)c2c1nc(Cc1cn3cc(C)sc3n1)n2Cc1ccccc1

- IC50 [1]: 41 nM
- IC50 [2]: 157 nM
Compound: CCn1c(=O)[nH]c(=O)c2c1nc(Cc1cn3cc(C)sc3n1)n2Cc1cccc(C(F)(F)F)c1

- solubility [3]: 3.7 µM (≈ 1.63 µg/mL)
- solubility [13]: 198 µM (≈ 87.1 µg/mL)
- Papp A→B at 5 µM [5]: 29.4 ×10⁻⁶ cm/s
- Papp B→A at 5 µM [6]: 47.7 ×10⁻⁶ cm/s
- fraction unbound [7]: 0.23
- CLint scaled [14]: < 115 mL/min/kg
- half-life [8]: > 60 min
- solubility [15]: 12.7 µM (≈ 5.6 µg/mL)
- fraction unbound [10]: 0.25
- CLint scaled [11]: < 115 mL/min/kg
- half-life [12]: > 60 min
Compound: CCn1c(=O)[nH]c(=O)c2c1nc(Cc1cn3cc(Cl)sc3n1)n2Cc1ccccc1

- IC50 [1]: 34 nM
- IC50 [2]: 113 nM
Compound: CCn1c(=O)[nH]c(=O)c2c1nc(Cc1cn3cc(C)sc3n1)n2Cc1cc(C)cc(C)c1

- solubility [3]: > 200 µM
- solubility [13]: > 200 µM
- Papp A→B at 5 µM [5]: 2.3 ×10⁻⁶ cm/s
- Papp B→A at 5 µM [6]: 46.3 ×10⁻⁶ cm/s
- fraction unbound [7]: 0.39
- CLint scaled [14]: 367 mL/min/kg
- half-life [8]: > 60 min
- solubility [15]: > 200 µM
- fraction unbound [10]: 0.29
- CLint scaled [11]: < 115 mL/min/kg
- half-life [12]: 19 min
Compound: CCn1c(=O)[nH]c(=O)c2c1nc(Cc1cn3ccccc3n1)n2Cc1ccc(-c2ccn(C)n2)cc1

- IC50 [1]: 152 nM
- IC50 [2]: 394 nM
Compound: CCn1c(=O)[nH]c(=O)c2c1nc(Cc1cn3cc(C)sc3n1)n2CC1CCCCC1

- IC50 [1]: 57 nM
- IC50 [2]: 772 nM
Compound: CCn1c(=O)[nH]c(=O)c2c1nc(Cc1cn3c(n1)CCCC3)n2CC1COC1

- IC50 [1]: 37 nM
- IC50 [2]: 300 nM
Compound: CCOC(=O)Cn1c(Cc2cn3cc(C)sc3n2)nc2c1c(=O)[nH]c(=O)n2CC

- solubility [3]: < 10 µM
- solubility [13]: < 10 µM
- Papp A→B at 5 µM [5]: 4.9 ×10⁻⁶ cm/s
- Papp B→A at 5 µM [6]: 59.9 ×10⁻⁶ cm/s
- fraction unbound [7]: 0.11
- CLint scaled [14]: 854 mL/min/kg
- half-life [8]: 40 min
- solubility [15]: < 10 µM
- fraction unbound [10]: 0.11
- CLint scaled [11]: 174 mL/min/kg
- half-life [12]: 8 min
Compound: CCn1c(=O)[nH]c(=O)c2c1nc(Cc1cn3cc(Cl)sc3n1)n2Cc1ccc(-c2ccn(C)n2)cc1

- IC50 [1]: > 10000 nM
- IC50 [2]: > 10000 nM
Compound: CCn1c(=O)[nH]c(=O)c2c1nc(Cc1cn3cc(C)sc3n1)n2CC(=O)O

- IC50 [1]: 24 nM
- IC50 [2]: 196 nM
Compound: CCn1c(=O)[nH]c(=O)c2c1nc(Cc1cn3cc(C)sc3n1)n2Cc1cccc(C)n1

- IC50 [1]: 38 nM
- IC50 [2]: 343 nM
Compound: CCn1c(=O)[nH]c(=O)c2c1nc(Cc1cn3cc(C)sc3n1)n2CCCOC

- IC50 [1]: 26 nM
- IC50 [2]: 107 nM
Compound: CCOC(=O)CCCn1c(Cc2cn3cc(C)sc3n2)nc2c1c(=O)[nH]c(=O)n2CC

- IC50 [1]: 307 nM
- IC50 [2]: 3270 nM
Compound: CCn1c(=O)[nH]c(=O)c2c1nc(Cc1cn3c(n1)CCCC3)n2Cc1cccc(C(=O)O)c1
